# Assays:
# Assay type in all cases: cell-based
# D(3) dopamine receptor [1] = target: T1, D(3) dopamine receptor (Homo sapiens, UniProt P35462); assay: Displacement of [3H]raclopride from human recombinant dopamine D3 receptor expressed in CHO-K1 cells at 1 uM incubated for 120 mins by liquid scintillation counting analysis
# Histamine H3 receptor [2] = target: T2, Histamine H3 receptor (Homo sapiens, UniProt Q9Y5N1); assay: Displacement of N-alpha-[methyl-3H]methylhistamine dihydrochloride from human recombinant histamine H3 receptor expressed in CHO-K1 cells at 1 uM incubated for 30 mins by liquid scintillation counting analysis
# T2 sequence (Q9Y5N1 whole entry): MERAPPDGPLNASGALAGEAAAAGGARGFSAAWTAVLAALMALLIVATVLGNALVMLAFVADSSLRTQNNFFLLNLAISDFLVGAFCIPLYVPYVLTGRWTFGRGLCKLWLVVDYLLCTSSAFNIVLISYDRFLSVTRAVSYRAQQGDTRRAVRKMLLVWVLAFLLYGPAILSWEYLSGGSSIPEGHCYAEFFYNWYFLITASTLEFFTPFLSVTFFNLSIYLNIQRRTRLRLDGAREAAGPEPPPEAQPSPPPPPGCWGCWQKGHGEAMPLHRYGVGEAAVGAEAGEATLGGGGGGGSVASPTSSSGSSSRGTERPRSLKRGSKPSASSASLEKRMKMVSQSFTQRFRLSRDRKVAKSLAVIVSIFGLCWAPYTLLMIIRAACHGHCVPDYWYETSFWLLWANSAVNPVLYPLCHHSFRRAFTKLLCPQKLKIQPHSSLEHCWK
# [3] = target: T3, 5-hydroxytryptamine receptor 6 (Homo sapiens, UniProt P50406); assay: Displacement of [3H]LSD from human recombinant 5-HT6 receptor expressed in CHO-K1 cells at 1 uM incubated for 3 hrs by scintillation counting analysis
# T3 sequence (P50406 whole entry): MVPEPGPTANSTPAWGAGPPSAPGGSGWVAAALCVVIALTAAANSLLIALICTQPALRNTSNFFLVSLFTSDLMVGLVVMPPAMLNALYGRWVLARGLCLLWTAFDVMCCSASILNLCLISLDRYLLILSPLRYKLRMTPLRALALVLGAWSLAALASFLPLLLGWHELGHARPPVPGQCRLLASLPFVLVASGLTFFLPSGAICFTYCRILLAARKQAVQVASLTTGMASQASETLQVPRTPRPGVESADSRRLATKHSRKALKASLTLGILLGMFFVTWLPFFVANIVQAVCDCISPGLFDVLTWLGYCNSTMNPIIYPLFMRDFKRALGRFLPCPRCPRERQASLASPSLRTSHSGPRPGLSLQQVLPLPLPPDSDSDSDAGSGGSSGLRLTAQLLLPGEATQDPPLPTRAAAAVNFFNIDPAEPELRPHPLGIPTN
# D(3) dopamine receptor [4] = target: T1, D(3) dopamine receptor; assay: Displacement of [3H]raclopride from human recombinant dopamine D3 receptor expressed in CHO-K1 cells incubated for 120 mins by liquid scintillation counting analysis
# D(2) dopamine receptor [5] = target: T4, D(2) dopamine receptor (Homo sapiens, UniProt P14416); assay: Displacement of [3H]raclopride from human recombinant dopamine D2 long receptor expressed in CHO-K1 cells at 1 uM incubated for 120 mins by scintillation counting analysis
# T4 sequence (P14416 whole entry): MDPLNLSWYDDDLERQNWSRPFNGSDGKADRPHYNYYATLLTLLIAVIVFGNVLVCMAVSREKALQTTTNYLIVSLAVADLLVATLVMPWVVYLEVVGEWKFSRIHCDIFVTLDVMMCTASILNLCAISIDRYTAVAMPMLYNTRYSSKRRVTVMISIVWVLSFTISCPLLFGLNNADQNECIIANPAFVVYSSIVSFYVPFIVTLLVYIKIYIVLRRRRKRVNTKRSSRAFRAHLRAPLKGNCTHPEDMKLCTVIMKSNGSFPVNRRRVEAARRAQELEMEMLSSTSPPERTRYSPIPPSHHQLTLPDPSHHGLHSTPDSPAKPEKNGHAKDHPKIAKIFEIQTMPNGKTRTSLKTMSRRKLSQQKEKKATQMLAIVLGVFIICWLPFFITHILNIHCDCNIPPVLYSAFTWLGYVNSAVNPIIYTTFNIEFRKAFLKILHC
# D(2) dopamine receptor [6] = target: T4, D(2) dopamine receptor; assay: Displacement of [3H]raclopride from human recombinant dopamine D2 long receptor expressed in CHO-K1 cells incubated for 120 mins by scintillation counting analysis
# [7] = target: T3, 5-hydroxytryptamine receptor 6; assay: Displacement of [3H]LSD from human recombinant 5-HT6 receptor expressed in CHO-K1 cells incubated for 3 hrs by scintillation counting analysis
# Homo sapiens = species: Homo sapiens; assay: Selectivity index, ratio of Ki for human recombinant dopamine D3 receptor expressed in CHO-K1 cells to Ki for dopamine D2 long receptor expressed in CHO-K1 cells
# Histamine H3 receptor [8] = target: T2, Histamine H3 receptor; assay: Displacement of N-alpha-[methyl-3H]methylhistamine dihydrochloride from human recombinant histamine H3 receptor expressed in CHO-K1 cells incubated for 30 mins by liquid scintillation counting analysis
# T1 sequence (P35462 whole entry): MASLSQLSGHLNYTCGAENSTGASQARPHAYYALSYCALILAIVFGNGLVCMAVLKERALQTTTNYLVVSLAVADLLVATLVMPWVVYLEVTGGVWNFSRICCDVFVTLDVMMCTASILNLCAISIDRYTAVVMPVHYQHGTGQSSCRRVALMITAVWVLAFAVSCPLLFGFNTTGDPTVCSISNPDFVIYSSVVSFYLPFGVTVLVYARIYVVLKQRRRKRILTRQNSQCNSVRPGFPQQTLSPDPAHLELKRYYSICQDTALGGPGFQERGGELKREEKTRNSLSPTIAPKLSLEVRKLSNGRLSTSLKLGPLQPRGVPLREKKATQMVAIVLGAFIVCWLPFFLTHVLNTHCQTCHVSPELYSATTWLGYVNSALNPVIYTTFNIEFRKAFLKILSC
inhibition (D(3) dopamine receptor [1]) [%],inhibition (Histamine H3 receptor [2]) [%],inhibition [3] [%],Ki (D(3) dopamine receptor [4]) [nM],inhibition (D(2) dopamine receptor [5]) [%],Ki (D(2) dopamine receptor [6]) [nM],Ki [7] [nM],Ki (Histamine H3 receptor [8]) [nM],Structure (SMILES),Ratio Ki (Homo sapiens)
98,39,38,24,59,245,,,CCCN1CCN(c2ccc3c(c2)CCN3S(=O)(=O)c2ccccc2)CC1,
56,-5,45,383,38,,1030,,CCCN1CCC(c2cccc3c2CCN3S(=O)(=O)c2ccccc2)CC1,
13,10,87,,35,,45,,CN1CCC(c2cccc3c2CCN3S(=O)(=O)c2ccccc2)CC1,
85,35,84,108,18,,440,,CN1CCN(c2ccc3c(c2)CCN3S(=O)(=O)c2ccccc2)CC1,
32,48,4,,18,,,302,CCN1CCC(c2ccc3c(c2)CN(S(=O)(=O)c2ccccc2)C3)CC1,
68,36,28,208,24,,,,O=S(=O)(c1ccccc1)N1CCc2cc(N3CCN(C4CCC4)CC3)ccc21,
86,11,95,95,39,,23,,CCN1CCC(c2ccc3c(c2)N(S(=O)(=O)c2ccccc2)CC3)CC1,< 10
97,12,98,27,64,180,4.6,,CCCN1CCN(c2cccc3c2CN(S(=O)(=O)c2ccccc2)C3)CC1,
49,-6,91,517,27,,2.7,,O=S(=O)(c1ccccc1)N1CCc2ccc(C3CCNCC3)cc21,< 10
48,11,-9,1670,22,,,,O=S(=O)(c1ccccc1)N1CCc2cc(C3CCN(C4CCC4)CC3)ccc21,
34,74,1,,1,,,395,O=S(=O)(c1ccccc1)N1Cc2ccc(N3CCN(C4CCC4)CC3)cc2C1,
24,28,-10,,25,,,,O=S(=O)(c1ccccc1)N1Cc2ccc(C3CCN(C4CCC4)CC3)cc2C1,
34,41,56,,19,,556,,CN1CCC(c2ccc3c(c2)CN(S(=O)(=O)c2ccccc2)C3)CC1,
77,17,96,173,67,211,8.2,,CN1CCN(c2cccc3c2CCN3S(=O)(=O)c2ccccc2)CC1,1.5
59,1,62,362,29,,527,,O=S(=O)(c1ccccc1)N1CCc2ccc(C3CCN(C4CCC4)CC3)cc21,< 10
61,60,-7,688,22,,,294,CCN1CCN(c2ccc3c(c2)CN(S(=O)(=O)c2ccccc2)C3)CC1,
72,-7,92,68,52,458,25,,CN1CCN(c2ccc3c(c2)N(S(=O)(=O)c2ccccc2)CC3)CC1,< 10
20,2,74,,13,,175,,O=S(=O)(c1ccccc1)N1CCc2cc(C3CCNCC3)ccc21,

inhibition (D(3) dopamine receptor [1]) [%],inhibition (Histamine H3 receptor [2]) [%],inhibition [3] [%],Ki (D(3) dopamine receptor [4]) [nM],inhibition (D(2) dopamine receptor [5]) [%],Ki (D(2) dopamine receptor [6]) [nM],Ki [7] [nM],Ki (Histamine H3 receptor [8]) [nM],Structure (SMILES),Ratio Ki (Homo sapiens)
-5,13,91,,49,1830,42,,O=S(=O)(c1ccccc1)N1Cc2cccc(C3CCN(C4CCC4)CC3)c2C1,
95,20,86,16,77,136,60,,CCN1CCN(c2ccc3c(c2)N(S(=O)(=O)c2ccccc2)CC3)CC1,< 10
6,-5,83,,10,,13,,O=S(=O)(c1ccccc1)N1CCc2c(C3CCNCC3)cccc21,
72,16,98,525,47,1590,4.8,,O=S(=O)(c1ccccc1)N1Cc2cccc(N3CCN(C4CCC4)CC3)c2C1,
48,27,26,712,16,,,,CCCN1CCC(c2ccc3c(c2)CN(S(=O)(=O)c2ccccc2)C3)CC1,
3,3,54,,9,,254,,O=S(=O)(c1ccccc1)N1Cc2ccc(C3CCNCC3)cc2C1,
85,38,,103,29,,,,CCCN1CCN(c2ccc3c(c2)CN(S(=O)(=O)c2ccccc2)C3)CC1,
55,4,92,212,40,,21,,CCCN1CCC(c2cccc3c2CN(S(=O)(=O)c2ccccc2)C3)CC1,
98,14,81,26,59,324,71,,CCCN1CCC(c2ccc3c(c2)N(S(=O)(=O)c2ccccc2)CC3)CC1,< 10
41,21,29,,11,,,,CN1CCN(c2ccc3c(c2)CN(S(=O)(=O)c2ccccc2)C3)CC1,
97,27,78,17,87,42,74,,CCCN1CCN(c2cccc3c2CCN3S(=O)(=O)c2ccccc2)CC1,1.5
53,3,98,562,27,,2.3,,CCN1CCC(c2cccc3c2CN(S(=O)(=O)c2ccccc2)C3)CC1,
75,3,93,121,34,,25,,CN1CCC(c2ccc3c(c2)N(S(=O)(=O)c2ccccc2)CC3)CC1,< 10
78,36,60,173,50,411,186,,O=S(=O)(c1ccccc1)N1CCc2ccc(N3CCN(C4CCC4)CC3)cc21,< 10
79,22,39,227,35,,,,CCCN1CCC(c2ccc3c(c2)CCN3S(=O)(=O)c2ccccc2)CC1,
99,16,82,5.7,80,95,125,,CCCN1CCN(c2ccc3c(c2)N(S(=O)(=O)c2ccccc2)CC3)CC1,< 10
85,19,100,160,43,,2.6,,CN1CCN(c2cccc3c2CN(S(=O)(=O)c2ccccc2)C3)CC1,

Structure (SMILES),inhibition (D(3) dopamine receptor [1]) [%],inhibition (Histamine H3 receptor [2]) [%],inhibition [3] [%],Ki (D(3) dopamine receptor [4]) [nM],inhibition (D(2) dopamine receptor [5]) [%],Ki (D(2) dopamine receptor [6]) [nM],Ki [7] [nM],Ki (Histamine H3 receptor [8]) [nM],Ratio Ki (Homo sapiens)
O=S(=O)(c1ccccc1)N1CCc2c(N3CCNCC3)cccc21,40,3,97,,22,,118,,
O=S(=O)(c1ccccc1)N1CCc2ccc(N3CCNCC3)cc21,58,4,95,330,32,,12,,< 10
O=S(=O)(c1ccccc1)N1Cc2cccc(N3CCNCC3)c2C1,61,11,98,505,29,,1.9,,
CCN1CCN(c2cccc3c2CN(S(=O)(=O)c2ccccc2)C3)CC1,92,17,98,73,55,310,28,,
O=S(=O)(c1ccccc1)N1Cc2ccc(N3CCNCC3)cc2C1,37,7,46,,14,,289,,
O=S(=O)(c1ccccc1)N1CCc2cc(N3CCNCC3)ccc21,75,4,90,133,18,,20,,
